# Patent publication US12240862B2, “Inhibitors of peptidylarginine deiminases” (Gilead Sciences, Inc., priority 2020, dated 2025)
# Biological target: T1, human PAD4 (Homo sapiens, UniProt Q9UM07)
# T1 construct: human PAD4 (NM_012387), A2P663, was PCR amplified; His-SUMO (N, cleaved yes); made in house; host or cells: E. coli BL21(DE3)
# Assay: In vitro PAD4 BAEE biochemical assay
# Settings: human PAD4, BAEE substrate; 5 nM PAD4, 2 mM calcium chloride, 3 mM BAEE; geometric mean of multiple experiments
# In short: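 Ammonia release from BAEE deimination monitored by o-phthalaldehyde amine coupling (1 h, 25 °C) after EDTA stop. Final conditions: 5 nM tag-free recombinant human PAD4 (E. coli), 2 mM CaCl2, 3 mM BAEE, pH 7.6 MOPS with DTT; 30 min compound preincubation, then 2 h reaction at 25 °C.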
# T1 sequence (Q9UM07 2-663): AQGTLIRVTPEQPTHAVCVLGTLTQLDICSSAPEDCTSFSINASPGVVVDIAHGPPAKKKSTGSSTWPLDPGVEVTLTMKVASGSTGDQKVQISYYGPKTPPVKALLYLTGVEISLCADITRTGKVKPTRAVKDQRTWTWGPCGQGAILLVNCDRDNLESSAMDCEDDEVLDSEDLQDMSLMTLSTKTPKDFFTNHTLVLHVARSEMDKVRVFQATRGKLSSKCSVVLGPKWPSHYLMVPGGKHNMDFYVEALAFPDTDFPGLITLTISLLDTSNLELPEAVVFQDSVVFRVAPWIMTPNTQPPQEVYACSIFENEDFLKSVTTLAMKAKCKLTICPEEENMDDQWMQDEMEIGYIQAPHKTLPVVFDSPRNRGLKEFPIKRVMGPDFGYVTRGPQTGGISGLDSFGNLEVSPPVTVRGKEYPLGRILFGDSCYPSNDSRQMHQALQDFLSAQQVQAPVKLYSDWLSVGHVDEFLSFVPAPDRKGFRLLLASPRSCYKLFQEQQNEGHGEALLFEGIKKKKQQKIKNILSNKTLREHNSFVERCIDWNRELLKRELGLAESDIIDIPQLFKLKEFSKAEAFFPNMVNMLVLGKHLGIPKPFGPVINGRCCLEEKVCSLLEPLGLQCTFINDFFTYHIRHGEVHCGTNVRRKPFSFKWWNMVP
row,SMILES,IC50 [µM]
1,"CCc1ccc2cc(-c3nc4cc(C(=O)N5[C@H]6CC[C@@H]5[C@H](N)C6)cc(OC)n4c3C)n(CC(F)F)c2n1 [Example 502, [(1~{R},2~{R},4~{S})-2-amino-7-azabicyclo [2.2.1]heptan-7-yl]-[2-[1-(2,2-difluoroethyl)-6-ethylpyrrolo[2,3-b]pyridin-2-yl]-5-methoxy-3-methylimidazo [1,2-a]pyridin-7-yl] methanone]",0.258
2,"COc1cc(C(=O)N2[C@H]3CC[C@@H]2[C@H](N)C3)cc2nc(-c3cc4ccc(C5=CC(=O)N(C)CC5)nc4n3CC3CC3)c(C)n12 [Example 558, 4-[2-[7-[(1~{R},2~{R}, 4~{S})-2-amino-7-azabicyclo[2.2.1]heptane-7-carbonyl]-5-methoxy-3-methylimidazo[1,2-a]pyridin-2-yl]-1-(cyclopropylmethyl)pyrrolo [2,3-b]pyridin-6-yl]-1-methyl-2,3-dihydropyridin-6-one]",0.22
3,"COc1cc(C(=O)N2C[C@@H]3CCNCC32)cc2nc(-c3cc4ccc(N(C(F)F)S(C)(=O)=O)nc4n3CC3CC3)c(C)n12 (some centres unmarked) [Example 287, ~{N}-[1-(cyclopropylmethyl)-2-[7-[(6~{S},8~{R})-3,8-diazabicyclo[4.2.0]octane-8-carbonyl]-5-methoxy-3-methylimidazo[1,2-a]pyridin-2-yl]pyrrolo[2,3-b]pyridin-6-yl]-~{N}-(difluoromethyl) methanesulfonamide]",46.3
4,"COc1cc(C(=O)N2C[C@H](N)C[C@@H]2CF)cc2nc(-c3cc4ccc(N(C(F)F)S(C)(=O)=O)nc4n3CC3CC3)c(C)n12 [Example 353, N-[2-[7-[(2R,4R)-4-amino-2-(fluoromethyl)pyrrolidine-1-carbonyl]-5-methoxy-3-methyl-imidazo[1,2-a]pyridin-2-yl]-1-(cyclopropylmethyl)pyrrolo [2,3-b]pyridin-6-yl]-N-(difluoromethyl) methanesulfonamide]",26.8
5,"COc1cc(C(=O)N2CCC[C@@H](N)C2)cc2nc(-c3cc4ccc(-c5cccc6c5CNC6=O)nc4n3CC3CC3)c(C)n12 [Example 602, 4-[2-[7-[(3~{R})-3-aminopiperidine-1-carbonyl]-5-methoxy-3-methylimidazo[1,2-a]pyridin-2-yl]-1-(cyclopropylmethyl)pyrrolo[2,3-b]pyridin-6-yl]-2,3-dihydroisoindol-1-one]",2.15
6,"Cc1c(-c2cc3ccc(N(C(F)F)S(C)(=O)=O)nc3n2CC2CC2)nc2cc(C(=O)N3CCC[C@@H](N)C3)cc([S+](C)[O-])n12 (some centres unmarked) [Example 424, ~{N}-[2-[7-[(3~{R})-3-aminopiperidine-1-carbonyl]-3-methyl-5-methylsulfinylimidazo[1,2-a]pyridin-2-yl]-1-(cyclopropylmethyl)pyrrolo [2,3-b]pyridin-6-yl]-~{N}-(difluoromethyl) methanesulfonamide]",18
7,"COc1cc(C(=O)N2CCC[C@@H](N)C2)cc2nc(-c3cc4ccc([C@@H](C)N5CCOC5=O)nc4n3CC3CC3)c(C)n12 [Example 278, 3-[(1~{R})-1-[2-[7-[(3~{R})-3-aminopiperidine-1-carbonyl]-5-methoxy-3-methylimidazo [1,2-a]pyridin-2-yl]-1-(cyclopropylmethyl)pyrrolo [2,3-b]pyridin-6-yl]ethyl]-1,3-oxazolidin-2-one]",0.144
8,"COc1cc(C(=O)N[C@@H]2CCCCNC2)cc2nc(-c3cc4ccc(N(C(F)F)S(C)(=O)=O)nc4n3CC3CC3)c(C)n12 [Example 316, ~{N}-[(3~{R})-azepan-3-yl]-2-[1-(cyclopropylmethyl)-6-[difluoromethyl (methylsulfonyl)amino]pyrrolo[2,3-b]pyridin-2-yl]-5-methoxy-3-methylimidazo[1,2-a]pyridine-7-carboxamide]",0.306
9,"COc1cc(C(=O)N2[C@H]3CC[C@@H]2[C@H](N)C3)cc2nc(-c3cc4ccc([C@@H](C)NC(=O)N5CC[C@H](F)C5)nc4n3CC3CC3)c(C)n12 [Example 248, (3~{S})-~{N}-[(1~{R})-1-[2-[7-[(1~{R},2~{R},4~{S})-2-amino-7-azabicyclo[2.2.1]heptane-7-carbonyl]-5-methoxy-3-methylimidazo [1,2-a]pyridin-2-yl]-1-(cyclopropylmethyl)pyrrolo [2,3-b]pyridin-6-yl]ethyl]-3-fluoropyrrolidine-1-carboxamide]",0.0559
10,"COc1cc(C(=O)N2[C@H]3CC[C@@H]2[C@H](N)C3)cc2nc(-c3cc4ccc(C(C)CC#N)nc4n3CC3CC3)c(C)n12 (some centres unmarked) [Example 557, 3-[2-[7-[(1~{R},2~{R}, 4~{S})-2-amino-7-azabicyclo[2.2.1]heptane-7-carbonyl]-5-methoxy-3-methylimidazo[1,2-a]pyridin-2-yl]-1-(cyclopropylmethyl)pyrrolo [2,3-b]pyridin-6-yl] butanenitrile]",0.0777
11,"COc1cc(C(=O)N2[C@H]3CC[C@@H]2[C@H](N)[C@H](OC)C3)cc2nc(-c3cc4ccc([C@@H](C)NC(=O)C56CC(F)(C5)C6)nc4n3CC3CC3)c(C)n12 [Example 22, ~{N}-[(1~{R})-1-[2-[7-[(1~{R},2~{S},3~{R}, 5~{S})-2-amino-3-methoxy-8-azabicyclo [3.2.1]octane-8-carbonyl]-5-methoxy-3-methylimidazo [1,2-a]pyridin-2-yl]-1-(cyclopropylmethyl)pyrrolo[2,3-b]pyridin-6-yl]ethyl]-3-fluorobicyclo[1.1.1] pentane-1-carboxamide]",0.483
12,"COc1cc(C(=O)N2[C@H]3CC[C@@H]2[C@H](N)C3)cc2nc(-c3cc4ccc(C5CCCN(C(=O)N6CCCC6)C5)nc4n3CC3CC3)c(C)n12 (some centres unmarked) [Example 518, [(1~{R},2~{R},4~{S})-2-amino-7-azabicyclo [2.2.1]heptan-7-yl]-[2-[1-(cyclopropylmethyl)-6-[1-(pyrrolidine-1-carbonyl)piperidin-3-yl]pyrrolo [2,3-b]pyridin-2-yl]-5-methoxy-3-methylimidazo [1,2-a]pyridin-7-yl] methanone]",0.344
13,"COc1cc(C(=O)N2[C@H]3CC[C@@H]2[C@H](N)C3)cc2nc(-c3cc4ccc([C@@H](C)NC(=O)N(C)Cc5cccnc5)nc4n3CC3CC3)c(C)n12 [Example 222, 3-[(1~{R})-1-[2-[7-[(1~{R},2~{R},4~{S})-2-amino-7-azabicyclo[2.2.1]heptane-7-carbonyl]-5-methoxy-3-methylimidazo [1,2-a]pyridin-2-yl]-1-(cyclopropylmethyl)pyrrolo [2,3-b]pyridin-6-yl]ethyl]-1-methyl-1-(pyridin-3-ylmethyl)urea]",0.02
14,"COc1cc(C(=O)N2[C@H]3CC[C@@H]2[C@H](N)C3)cc2nc(-c3cc4ccc([C@@H](C)NC(=O)[C@H]5CC5(F)F)nc4n3CC3CC3)c(C)n12 [Example 131, (1~{R})-~{N}-[(1~{R})-1-[2-[7-[(1~{R},2~{R},4~{S})-2-amino-7-azabicyclo[2.2.1]heptane-7-carbonyl]-5-methoxy-3-methylimidazo [1,2-a]pyridin-2-yl]-1-(cyclopropylmethyl)pyrrolo [2,3-b]pyridin-6-yl]ethyl]-2,2-difluorocyclopropane-1-carboxamide]",0.0304
15,"COc1cc(C(=O)N(C)C)cc2nc(-c3cc4ccc([C@@H](C)N(C)C(=O)c5ccccc5)nc4n3CC3CC3)c(C)n12 [Example 184, 2-[6-[(1~{R})-1-[benzoyl (methyl)amino]ethyl]-1-(cyclopropylmethyl)pyrrolo [2,3-b]pyridin-2-yl]-5-methoxy-~{N},~{N},3-trimethylimidazo[1,2-a] pyridine-7-carboxamide]",17.7
16,"COc1cc(C(=O)N2[C@H]3CC[C@@H]2[C@H](N)C3)cc2nc(-c3cc4ccc([C@@H](C)NC(=O)C5CC(F)(F)C5)nc4n3CC3CC3)c(C)n12 [Example 85, ~{N}-[(1~{R})-1-[2-[7-[(1~{R},2~{R},4~{S})-2-amino-7-azabicyclo[2.2.1]heptane-7-carbonyl]-5-methoxy-3-methylimidazo [1,2-a]pyridin-2-yl]-1-(cyclopropylmethyl)pyrrolo [2,3-b]pyridin-6-yl]ethyl]-3,3-difluorocyclobutane-1-carboxamide]",0.0287
17,"COc1cc(C(=O)N2CCCC(C)(N)C2)cc2nc(-c3cc4ccc([C@@H](C)NC(=O)C56CC(F)(C5)C6)nc4n3CC3CC3)c(C3CC3)n12 (some centres unmarked) [Example 124, ~{N}-[(1~{R})-1-[2-[7-(3-amino-3-methylpiperidine-1-carbonyl)-3-cyclopropyl-5-methoxyimidazo [1,2-a]pyridin-2-yl]-1-(cyclopropylmethyl)pyrrolo [2,3-b]pyridin-6-yl]ethyl]-3-fluorobicyclo[1.1.1]pentane-1-carboxamide]",13
18,"CCc1ccc2cc(-c3nc4cc(C(=O)N5CCC[C@@H](N)C5)cc(OC)n4c3N)n(CC3CC3)c2n1 [Example 553, [3-amino-2-[1-(cyclopropylmethyl)-6-ethylpyrrolo[2,3-b]pyridin-2-yl]-5-methoxyimidazo [1,2-a]pyridin-7-yl]-[(3~{R})-3-aminopiperidin-1-yl]methanone]",0.757
19,"COc1cc(C(=O)N2[C@H]3CC[C@@H]2[C@H](N)C3)cc2nc(-c3cc4ccc([C@@H](C)NC(=O)C5(O)CCC5)nc4n3CC3CC3)c(C)n12 [Example 95, ~{N}-[(1~{R})-1-[2-[7-[(1~ {R},2~{R},4~{S})-2-amino-7-azabicyclo[2.2.1]heptane-7-carbonyl]-5-methoxy-3-methylimidazo[1,2-a]pyridin-2-yl]-1-(cyclopropylmethyl)pyrrolo [2,3-b]pyridin-6-yl]ethyl]-1-hydroxycyclobutane-1-carboxamide]",0.0435
20,"COc1cc(C(=O)N2C[C@H](N)[C@@H]3CC[C@H]2C3)cc2nc(-c3cc4ccc([C@@H](C)NC(=O)C56CC(F)(C5)C6)nc4n3CC3CC3)c(C)n12 [Example 189, N—((R)-1-(2-(7-((1S,4R,5R)-4-amino-2-azabicyclo[3.2.1]octane-2-carbonyl)-5-methoxy-3-methylimidazo[1,2-a]pyridin-2-yl)-1-(cyclopropylmethyl)-1H-pyrrolo[2,3-b]pyridin-6-yl)ethyl)-3-fluorobicyclo[1.1.1]pentane-1-carboxamide]",0.0673
